Converted amounts (≈) assume the structure as drawn. Read-outs that look alike come from different tables or passages of the source.
Key:
K. pneumoniae [1] = assay: MIC and MBC by microdilution in Mueller-Hinton broth, uropathogens; assay type: cell-based
Procedure: (§1) MICs and MBCs were determined by a microdilution method with Mueller-Hinton broth. An inoculum of 1.3-9.4 x 10^5 colony forming units (CFU) per ml was used.
(§2) Strains included a reference strain E. coli ATCC 25922, susceptible to nalidixic acid (Nal-S) and the following clinical isolates obtained from complicated UTI patients: E. coli (resistant to nalidixic acid), K. pneumoniae, P. mirabilis , P. aeruginosa, […] (3 strains) and Enterococcus faecalis (2 strains).

P. aeruginosa [2] = assay: as above; assay type: cell-based
Procedure: as §1, §2

S. aureus [3] = assay: as above; assay type: cell-based; conditions: Staphylococcus aureus
Procedure: as §1, §2

E. faecalis [4] = assay: as above; assay type: cell-based; conditions: Enterococcus faecalis
Procedure: as §1, §2

P. mirabilis [5] = assay: as above; assay type: cell-based
Procedure: as §1, §2

S. aureus [6] = assay: Urinary bactericidal titers (UBT) and AUBTC of volunteers' urine; assay type: cell-based; conditions: urine after gemifloxacin 320 mg or ofloxacin 400 mg
Enterobacter spp. = assay: MIC by agar dilution (NCCLS), 322 nosocomial Gram negative isolates, Athens 1998; assay type: cell-based; conditions: Enterobacter, n = 57 isolates
P. mirabilis [7] = assay: Urinary bactericidal titers (UBT) and AUBTC of volunteers' urine; assay type: cell-based; conditions: P. mirabilis (16) Laboratory No. 414; urine after gemifloxacin 320 mg or ofloxacin 400 mg
P. aeruginosa [8] = assay: as above; assay type: cell-based; conditions: P. aeruginosa (16) Laboratory No. 568; urine after gemifloxacin 320 mg or ofloxacin 400 mg
K. pneumoniae [9] = assay: as above; assay type: cell-based; conditions: K. pneumoniae (16) Laboratory No. 595; urine after gemifloxacin 320 mg or ofloxacin 400 mg
Streptococcus pneumoniae = assay: MIC by E-test (broth microdilution for gemifloxacin), 107 pneumococcal carrier isolates, Athens 1998; assay type: cell-based; conditions: E-test; for MIC50 / MIC90: Streptococcus pneumoniae; for MIC50: read-out: MIC50; for MIC90: read-out: MIC90
Procedure: Susceptibility testing was performed by agar dilution or epsilometer method (E-test), as recommended by the NCCLS. […] The susceptibility profiles of the strains were assessed using the Epsilometer method (E-test). The isolates were subdivided into two groups according to their penicillin susceptibility patterns (penicillin-susceptible and penicillin-intermediate.

Yersinia enterocolitica = assay: MIC by agar dilution (NCCLS M7-A4), 288 enteropathogenic isolates, gemifloxacin and 15 other antimicrobials; assay type: cell-based; conditions: Yersinia enterocolitica N= 22
E. coli = assay: Urinary bactericidal titers (UBT) and AUBTC of volunteers' urine; assay type: cell-based; conditions: for AUBTC (range): urine after gemifloxacin 320 mg or ofloxacin 400 mg
[10] = design: species or system healthy volunteers; conditions: human, in vivo, po
E. faecalis [11] = assay: Urinary bactericidal titers (UBT) and AUBTC of volunteers' urine; assay type: cell-based; conditions: urine after gemifloxacin 320 mg or ofloxacin 400 mg
[12] = S. aureus Laboratory No. 83, inoculum 7.1 CFU 10^5/ml
[13] = S. aureus Laboratory No. 161, inoculum 9.4 CFU 10^5/ml
[14] = S. aureus Laboratory No. 636, inoculum 5.6 CFU 10^5/ml
[15] = E. faecalis Laboratory No. 55, inoculum 6.0 CFU 10^5/ml
[16] = E. faecalis Laboratory No. 60, inoculum 7.0 CFU 10^5/ml
[17] = Penicillin-intermediate S. pneumoniae (n = 24)
[18] = Penicillin-susceptible S. pneumoniae (n = 107)

Compound: CC1COc2c(N3CCN(C)CC3)c(F)cc3c(=O)c(C(=O)O)cn1c23 (stereo not shown) [Ofloxacin, ofloxacin]
- MIC (K. pneumoniae [1]; K. pneumoniae Laboratory No. 595, inoculum 3.7 CFU 10^5/ml): 0.06 µg/mL (≈ 0.166 µM)
- MBC (K. pneumoniae [1]; Klebsiella pneumoniae, K. pneumoniae Laboratory No. 595, inoculum 3.7 CFU 10^5/ml): 0.06 µg/mL (≈ 0.166 µM)
- MIC (K. pneumoniae [1]; Klebsiella pneumoniae, K. pneumoniae clinical isolate, read-out: MIC): 0.06 µg/mL (≈ 0.166 µM)
- MIC (P. aeruginosa [2]; P. aeruginosa Laboratory No. 568, inoculum 5.6 CFU 10^5/ml): 4 µg/mL (≈ 11.1 µM)
- MBC (P. aeruginosa [2]; Pseudomonas aeruginosa, P. aeruginosa Laboratory No. 568, inoculum 5.6 CFU 10^5/ml): 4 µg/mL (≈ 11.1 µM)
- MIC (P. aeruginosa [2]; Pseudomonas aeruginosa, P. aeruginosa clinical isolate, read-out: MIC): 4 µg/mL (≈ 11.1 µM)
- MBC (S. aureus [3]; [12]): 0.25 µg/mL (≈ 0.692 µM)
- MIC (S. aureus [3]; [12]): 0.25 µg/mL (≈ 0.692 µM)
- MBC (S. aureus [3]; [13]): 4 µg/mL (≈ 11.1 µM)
- MIC (S. aureus [3]; [13]): 4 µg/mL (≈ 11.1 µM)
- MBC (S. aureus [3]; [14]): 32 µg/mL (≈ 88.6 µM)
- MIC (S. aureus [3]; [14]): 32 µg/mL (≈ 88.6 µM)
- MIC (S. aureus [3]; S. aureus isolate (0.008/0.25)): 0.25 µg/mL (≈ 0.692 µM)
- MIC (S. aureus [3]; S. aureus isolate (0.25/4)): 4 µg/mL (≈ 11.1 µM)
- MIC (S. aureus [3]; S. aureus isolate (2/32), quinolone-resistant): 32 µg/mL (≈ 88.6 µM)
- MBC (E. faecalis [4]; [15]): 128 µg/mL (≈ 354 µM)
- MIC (E. faecalis [4]; [15]): 32 µg/mL (≈ 88.6 µM)
- MBC (E. faecalis [4]; [16]): 2 µg/mL (≈ 5.53 µM)
- MIC (E. faecalis [4]; [16]): 2 µg/mL (≈ 5.53 µM)
- MIC (E. faecalis [4]; E. faecalis isolate (0.06/2)): 2 µg/mL (≈ 5.53 µM)
- MIC (E. faecalis [4]; E. faecalis isolate (0.5/32)): 32 µg/mL (≈ 88.6 µM)
- MIC (P. mirabilis [5]; P. mirabilis Laboratory No. 414, inoculum 2.5 CFU 10^5/ml): 0.125 µg/mL (≈ 0.346 µM)
- MIC (P. mirabilis [5]; Proteus mirabilis): 0.125 µg/mL (≈ 0.346 µM)
- MBC (P. mirabilis [5]; Proteus mirabilis, P. mirabilis Laboratory No. 414, inoculum 2.5 CFU 10^5/ml): 0.125 µg/mL (≈ 0.346 µM)
- AUBTC (range) (S. aureus [6]; S. aureus (13) Laboratory No. 636): 105 (0-279)
- AUBTC (range) (S. aureus [6]; S. aureus (16) Laboratory No. 83): 387 (162-570)
- AUBTC (range) (S. aureus [6]; S. aureus (16) Laboratory No. 161): 39 (0-78)
- MIC50 (Enterobacter spp.; read-out: MIC50): 0.125 µg/mL (≈ 0.346 µM)
- MIC90 (Enterobacter spp.; read-out: MIC90): 64 µg/mL (≈ 177 µM)
- AUBTC (range) (P. mirabilis [7]): 438 (276-654)
- AUBTC (range) (P. aeruginosa [8]): 99 (42-258)
- AUBTC (range) (K. pneumoniae [9]): 414 (180-636)
- MIC Range (Streptococcus pneumoniae; Penicillin-intermediate S. pneumoniae (n = 24), in µg/mL (unit assumed)): 0.75-6
- MIC50 (Streptococcus pneumoniae; [17]): 2 µg/mL (≈ 5.53 µM)
- MIC90 (Streptococcus pneumoniae; [17]): 3 µg/mL (≈ 8.3 µM)
- MIC50 (Streptococcus pneumoniae; [18]): 2 µg/mL (≈ 5.53 µM)
- MIC90 (Streptococcus pneumoniae; [18]): 4 µg/mL (≈ 11.1 µM)
- MIC (Yersinia enterocolitica; 24 h, read-out: MIC (mg/L) Range): 0.03 to 0.5 mg/L (≈ 0.083 to 1.38 µM)
- MIC (Yersinia enterocolitica; read-out: MIC (mg/L) 50%): 0.12 mg/L (≈ 0.332 µM)
- MIC (Yersinia enterocolitica; read-out: MIC (mg/L) 90%): 0.12 mg/L (≈ 0.332 µM)
- AUBTC (range) (E. coli; E. coli (16) ATCC 25922): 537 (258-888)
- AUBTC (range) (E. coli; E. coli (16) Laboratory No. 523): 276 (90-516)
- time for which median UBTs exceed 0 (E. coli; reference strain E. coli ATCC 25922, 320 mg gemifloxacin / 400 mg ofloxacin): 4 days
- tolerability [10]: well tolerated
- AUBTC (range) (E. faecalis [11]; E. faecalis (13) Laboratory No. 55): 0 (0-54)
- AUBTC (range) (E. faecalis [11]; E. faecalis (16) Laboratory No. 60): 135 (90-204)

Source: patent EP1561465A2, “Methods of use of fluoroquinolone compounds against bacteria” (LG Life Sciences, Ltd., priority 1999, dated 2001)
